Laboratory results: patent publication US20200077655A1, “Use of an Acyclic Picolinamide Compound as a Fungicide for Control of Phytopathogenic Fungi in Orchard, Vineyard and Plantation Crops” (Dow AgroSciences LLC, priority 2017, published 2020)

Assays:
Assay type in all cases: in vivo
[1] = tested on: Botrytis (BOTRSP); assay: Field assessment of jacket rot in almond; conditions: MSO, almond nut infection
Protocol: A fungicidal treatment containing Compound I, applied in an SC formulation (MSO-built in) was sprayed on almond trees (Prunus spp.) at bloom, petal fall and ca. 3 and 5 weeks after petal fall at rates of 60, 120, 150, and 180 g ai/ha. The experimental plots were conducted with a natural infestation of Botrytis. The treatments were part of an experimental trial designed as a randomized complete block (RCB) with three replications and a plot of approximately 18×18 ft. Compound I was applied at water volume of 100 gal/acre, using an Airblast sprayer. Nut infection (number of visual diseased nuts per total nuts counted per tree on whole plot) was assessed and recorded 17 days after application 4 (17 DAA4). Relative percent control was calculated as percent of the untreated control using Abbotts.

[2] = tested on: Podosphaera leucotricha (PODOLE); assay: Field assessment of apple powdery mildew; conditions: apples, 5% EC + ETHOMEEN T18H
Protocol: Assessment of compound I of PODOLE on apples was performed in two separate field trials. For the first trial, a fungicidal treatment containing a 5% EC formulation of compound I plus an adjuvant (ETHOMEEN T18H, 50% w/w at 1.0% v/v), was sprayed on the plant canopy of apples (MABSD, Imperatore Dallago variety) seven times during the growing season, the first application at BBCH 61 of plant growth stage, under natural infection of powdery mildew under open field conditions. The following six applications were applied in approximately 10 day intervals. Formulations of compound I were applied at rates of 100, 150, and 200 grams of active ingredient per hectare (g ai/ha). The treatment was part of an experimental trial designed as a randomized complete block with four replications and a plot of approximately 4.2×7.5 m. Formulations of compound I were applied at water volume of 800 L/ha, using a backpack plot sprayer (TRACKSP, Andreoli Engineering) and pressurized at 450 kPa.
For the second trial, a fungicidal treatment containing a 5% EC formulation of compound I plus an adjuvant (ETHOMEEN T18H, 50% w/w at 1.0% v/v), was sprayed on the plant canopy of apples (MABSD, Imperatore Dallago variety) seven times during the growing season, the first application at BBCH 61 of plant growth stage, under natural infection of powdery mildew under open field conditions. The following six applications were applied in approximately 10 day intervals. Formulations of compound I were applied at rates of 100, 150, and 200 grams of active ingredient per hectare (g ai/ha). The treatment was part of an experimental trial designed as a randomized complete block with four replications and a plot of approximately 4.2×7.5 m. Formulations of compound I were applied at water volume of 800 L/ha, using a self-propelled multi-plot track sprayer (TRACKSP, Andreoli Engineering) and pressurized at 450 kPa.
Disease severity in both trials was assessed as the percentage of leaf incidence and leaf infection on a random selection of 100 leaves. In the first trial, powdery mildew infection was assessed three times, 3 days after application D (3DAAD), 7DAAF, and SDAAG. In the second trial, powdery mildew infection was assessed four times, 6DAAB, 2DAAD, 7DAAF and SDAAG. Area under the disease progress curve (AUDPC) was calculated for each plot using the sets of recorded visual infection data. Relative AUDPC (% control based on AUDPC) was calculated as percent of the nontreated control.

[3] = tested on: Podosphaera clandestina (PODOCL); assay: Field assessment of powdery mildew in cherry; conditions: cherry leaves, 14 DAA5
Text: A fungicidal treatment containing Compound I, applied in an SC formulation (MSO built-in) and tank mixed with an adjuvant (Agnique BP-420, 50% w/w at 0.2% v/v or Adsee C80W 80%), was sprayed on cherry trees (PRNAV, Sentennial variety) at growth stage (mid petal fall, flowers fading, petals falling; BBCH 67-85) at rates of 60, 120, 150, and 180 g ai/ha. The experimental plots were run with natural infestation. The treatment was part of an experimental trial designed as a randomized complete block (RCB) with four replications and a plot of approximately 4×6 m. Compound I was applied at water volume of 1000 L/ha, using an Airblast sprayer.
Disease severity (percentage of visual diseased foliage (leaf) on whole plot) and disease incidence were assessed 14 days after application 5 (14 DAA5). The disease infection was recorded. Disease was evaluated as percent of leaves with disease (incidence), percent diseased leaf area (severity, a disease index calculated (percent (%) incidence×percent (%) severity) and then percent (%) control was calculated using Abbotts from the disease index values. Results are given in Table 12.

[4] = tested on: Botrytis cinerea (BOTRCI); assay: Strawberry shelf-life simulation, gray mold
Text: Strawberry shelf-life simulation (3 repetitions): Fungicidal treatments were applied to strawberry plants grown in a shade house to obtain healthy fruits. Once matured, the healthy fruits were harvested and transferred to a laboratory for a shelf-simulation study. In the laboratory, the fruits were bleach decontaminated to remove residual chemical residue. Compound I, applied in a 5% EC formulation and mixed with an adjuvant (Trycol, 50% w/w at 0.2% v/v), was sprayed on the healthy strawberries at rates of 50, 100 and 150 grams of active ingredient per hectare (g ai/ha) and allowed to dry completely. The fruits were then inoculated with gray mold and incubated on a laboratory bench at 20° C. Disease severity was recorded as a percentage of fruit infection assessments. Gray mold infection was assessed twice after the initial inoculation, 4 days after infection (4DAI) and 6DAI. Area under the disease progress curve (AUDPC) was calculated for each repetition using the sets of recorded severity data. Relative AUDPC (% control based on AUDPC) was calculated as percent of the nontreated control.

In the case of `COc1ccnc(C(=O)N[C@@H](C)C(=O)O[C@@H](C)C(c2ccc(F)cc2)c2ccc(F)cc2)c1OC(C)=O` [Compound I, (S)-1,1-bis(4-fluorophenyl)propan-2-yl (3-acetoxy-4-methoxypicolinoyl)-L-alaninate], the “Calc Percent Control of BOTRSP 17 DAA4” value ([1]; 60 g ai/ha, 120 g ai/ha) is reported as 37.9%, the “Calc Percent Control of BOTRSP 17 DAA4” value ([1]; 120 g ai/ha, 240 g ai/ha) is reported as 40.0% and the “Calc Percent Control of BOTRSP 17 DAA4” value ([1]; 150 g ai/ha, 300 g ai/ha) is reported as 51.6%. The “Calc Percent Control of BOTRSP 17 DAA4” value ([1]; 180 g ai/ha, 360 g ai/ha) was 53.5%, the “Percent control (AUDPC) from leaf infection assessments” value ([2]; Trial 1, 100 g ai/ha) was “B (51-75)” and the “Percent control (AUDPC) from leaf infection assessments” value ([2]; Trial 1, 150 g ai/ha) was “A (76-100)”. The “Percent control (AUDPC) from leaf infection assessments” value ([2]; Trial 1, 200 g ai/ha) was “A (76-100)”, the “Percent control (AUDPC) from leaf infection assessments” value ([2]; Trial 2, 100 g ai/ha) was “A (76-100)” and the “Percent control (AUDPC) from leaf infection assessments” value ([2]; Trial 2, 150 g ai/ha) was “A (76-100)”. For the same molecule, the “Percent control (AUDPC) from leaf infection assessments” value ([2]; Trial 2, 200 g ai/ha) was “A (76-100)”, the “Calc Percent Control of PODOCL” value ([3]; 60 g ai/ha, Agnique BP420, 240 mL/ha) was 64.6% and the “Calc Percent Control of PODOCL” value ([3]; 60 g ai/ha, MSO, 120 g ai/ha) was 63.3%. The “Calc Percent Control of PODOCL” value ([3]; 120 g ai/ha, Adsee C80W 80%, 300 g ai/ha) was 44.4%, the “Calc Percent Control of PODOCL” value ([3]; 120 g ai/ha, Agnique BP420, 480 mL/ha) was 46.9% and the “Calc Percent Control of PODOCL” value ([3]; 120 g ai/ha, MSO, 240 g ai/ha) was 37.9%. For the same molecule, the “Calc Percent Control of PODOCL” value ([3]; 150 g ai/ha, Agnique BP420, 600 mL/ha) was 44.4%, the “Calc Percent Control of PODOCL” value ([3]; 150 g ai/ha, MSO, 300 g ai/ha) was 91.7% and the “Calc Percent Control of PODOCL” value ([3]; 180 g ai/ha, Agnique BP420, 720 mL/ha) was 48.7%. For the same molecule, the “Calc Percent Control of PODOCL” value ([3]; 180 g ai/ha, MSO, 360 g ai/ha) was 89.1%, the “Percent control (AUDPC) from fruit severity assessments” value ([4]; 50 g ai/ha) was “B (51-75)” and the “Percent control (AUDPC) from fruit severity assessments” value ([4]; 100 g ai/ha) was “A (76-100)”. For the same molecule, the “Percent control (AUDPC) from fruit severity assessments” value ([4]; 150 g ai/ha) was “A (76-100)”.
